In EP0584085B1, “ANTIBIOTIC CARBAPENEM DERIVATIVES” (ZENECA LIMITED, priority 1991, dated 1992):
Converted amounts (≈) assume the structure as drawn.

What was measured:
Experiment in all cases: MIC by agar-dilution, Diagnostic Sensitivity Test agar
Format in all cases: cell-based
[1] = test system: Strep.pyogenes (681018); settings: Streptococcus pyogenes, inoculum 10^4 CFU/spot
Description: (§1) The following results were obtained for representative compounds on a standard in vitro test system using Diagnostic Sensitivity Test agar medium. The antibacterial activity is described in terms of the minimum inhibitory concentration (MIC) determined by the agar-dilution technique with an inoculum size of 10^4 CFU/spot.

[2] = test system: Serr.marcesens (421003); settings: inoculum 10^4 CFU/spot
Description: as §1

[3] = test system: P.aeruginosa PU21 (101028); settings: Pseudomonas aeruginosa, inoculum 10^4 CFU/spot
Description: as §1

[4] = test system: E.coli DCO (341098); settings: Escherichia coli, inoculum 10^4 CFU/spot
Description: as §1

[5] = test system: P. aeruginosa 18S (101024); settings: Pseudomonas aeruginosa, inoculum 10^4 CFU/spot
Description: as §1

[6] = test system: B. fragilis AMP R (542008); settings: Bacteroides fragilis, inoculum 10^4 CFU/spot
Description: as §1

[7] = test system: Pr.morganii (433001); settings: Morganella morganii, inoculum 10^4 CFU/spot
Description: as §1

[8] = test system: S.dublin (369001); settings: Salmonella enterica, inoculum 10^4 CFU/spot
Description: as §1

[9] = test system: Ent.cloacae P99^- (401054); settings: Enterobacter cloacae
Description: as §1

[10] = test system: St.aureus 147N (601052); settings: Staphylococcus aureus, inoculum 10^4 CFU/spot
Description: as §1

C[C@@H](O)[C@H]1C(=O)N2C(C(=O)O)=C(S[C@@H]3CN[C@H](C(=O)Nc4cc(O)c(O)c(C#N)c4)C3)[C@H](C)[C@H]12 [Example 2, (1R,5S,6S,8R,2'S,4'S)-2-(2-(5-Cyano-3,4-dihydroxyphenylcarbamoyl)pyrrolidin-4-ylthio)-6-(1-hydroxyethyl)-1-methyl-carbapenem-3-carboxylic acid]
MIC [1]: 0.008 µg/mL (≈ 0.0164 µM)
MIC [2]: 0.125 µg/mL (≈ 0.256 µM)
MIC [3]: 0.25 µg/mL (≈ 0.512 µM)
MIC [4]: 0.015 µg/mL (≈ 0.0307 µM)
MIC [5]: 0.06 µg/mL (≈ 0.123 µM)
MIC [6]: 0.25 µg/mL (≈ 0.512 µM)
MIC [7]: 0.125 µg/mL (≈ 0.256 µM)
MIC [8]: 0.008 µg/mL (≈ 0.0164 µM)
MIC [9]: 0.015 µg/mL (≈ 0.0307 µM)
MIC [10]: 0.25 µg/mL (≈ 0.512 µM)
